Assay results from article PMC12040169 (PLOS Biology, 2025).

experiment: in vitro; conditions: human, hela cells, % viability

Structure (SMILES)	viability at 28.5 h, 10 µM [%]
Cc1ccccc1C(=O)N1CCN(S(=O)(=O)c2sc(C(=O)O)c(C)c2C(=O)O)CC1 [CBK297146]	102
CC1CCCCN1Cc1nc2c(c(=O)n(C)c(=O)n2C)n1CCc1ccccc1 (centres unmarked) [CBK269189]	117
Cc1ccc2nc(SCC(=O)O)nc(C)c2c1 [CBK265996]	94.1
O=C(Cc1ccc(Cl)c(Cl)c1)NCCc1c[nH]c2ccc(Cl)cc12 [CBK159749]	100
Cc1cc(=O)oc2cc(OCC(=O)Nc3ccc(S(=O)(=O)O)cc3)ccc12 [CBK301204N]	89.6
Cc1ccc(S(=O)(=O)N2CCC(N3CCN(CCO)CC3)CC2)cc1 [CBK264656G]	96.8
O=S(=O)(NCCSc1ccccn1)c1ccc(Br)cc1 [CBK264001]	99.3
COc1ccccc1N(CC(=O)Nc1ccc2c(c1)oc1ccccc12)S(=O)(=O)c1ccccc1 [CBK264737]	87.8
Cn1nnnc1SCC(=O)Nc1ccc(Cl)c(Cl)c1 [CBK058218]	108
Nc1nn(S(=O)(=O)c2cccc3nsnc23)cc1-c1ccc(Br)cc1 [CBK268975]	107
COc1ccc(OC)c(C(C)NC(=O)C2CCN(CCc3c[nH]c4ccccc34)CC2)c1 (centres unmarked) [CBK148763]	99.2
Cc1nn(CC(=O)N2CCCCCC2)c(=O)c2cc3sccc3n12 [CBK284084]	80.4
Cc1cc(NS(=O)(=O)c2ccc(NC(=S)NC3CCCCC3)cc2)no1 [CBK268157]	91.3
c1ccc2c(c1)CCCN2c1ncnc2n[nH]cc12 [CBK287886]	69.3
CN(C)Cc1cc(C[C@@H]2C[C@H](NS(=O)(=O)c3ccccc3)C2(C)C)no1 [CBK289307]	112
CCn1cc(C(=O)O)c(=O)c2cnc(N3CCN(C(=S)Nc4ccc5c(c4)OCO5)CC3)nc21 [CBK267930]	90.6
Cc1nc(-c2ccccc2)nc2c1c(N)nn2CC(=O)O [CBK287109]	95.1
Cc1ccc(N2CC(C(=O)Nc3ccc(S(=O)(=O)NCC4CCCO4)cc3)CC2=O)cc1 (centres unmarked) [CBK267532]	91.7
Cc1cc(NC(=O)C2CCCC2)nc2c1c(=O)oc1ccccc12 [CBK287438]	93.2
CC(=O)N[C@@H](C(=O)N1CC[C@@H]2NC(=O)[C@@H](Cc3ccccc3)NC(=O)C3(C/C=C/C[C@H]2C1)CCOCC3)C(C)C [CBK292198]	97.1
CNCCc1nc(-c2ccc(F)cc2)c2cnccn12 [CBK035927]	90.7
Cc1cccc(-c2ncc(NC(=O)c3cccc(N(C)C)c3)nc2-c2ccco2)c1 [CBK036654]	103

Structure (SMILES)	viability at 28.5 h, 10 µM [%]
CCOc1ccsc1C(=O)N1CCN(CCc2ccccc2)CC1 [CBK200229]	91.5
CCc1ccc2c(c1)C(CCNC(=O)c1ncoc1C(F)(F)F)C(=O)N2 (centres unmarked) [CBK304725]	99.4
O=C(CCn1c(C(F)(F)F)cc2cccnc21)NCc1cccnc1 [CBK284865]	106
Cc1[nH]nc2c1C(c1ccc(Cl)cc1)N(CCc1c[nH]c3ccccc13)C2=O (centres unmarked) [CBK287919]	114
Cc1ccc(Nc2c([N+](=O)[O-])nn(-c3ccccc3)[n+]2[O-])cc1F [CBK268414]	102
CN(C)CCNCCCSc1ccc(Cl)cc1 [CBK267794C]	104
Nc1ccc(OCc2nc3ccccc3n2CC(=O)O)cc1 [CBK270099]	96
CCN1CCCN(c2ccnc(OCCN3CCOCC3)n2)CC1 [CBK083807]	114
CC(=O)Nc1ccc(CNC(=O)CN(C)Cc2nc(C3CC3)no2)cc1 [CBK306695]	114
O=C(Nc1cccc(F)c1)N(Cc1cccnc1)CC1CCCO1 (centres unmarked) [CBK304065]	109
O=C(O)c1cc(NC(=O)c2ccc(Oc3ccc([N+](=O)[O-])cc3)cc2)cc(C(=O)O)c1 [CBK261188]	88.6
Cc1ccc2c(c1)oc(=O)n2CCNC(=O)c1cccs1 [CBK284472]	99.9
Cc1ccc(C(=O)N2CCC3(CC2)CC(=O)c2cc(Br)ccc2O3)cc1C [CBK162264]	105
CC(C)(CN)CN(Cc1cccc2ccccc12)C(=O)NC1C[C@H]1c1ccccc1 (some centres unmarked) [CBK000490C]	94.7
O=C(CSc1ccccc1)NCc1ccncc1 [CBK058023]	96.7
Nc1cccc(-c2cn([C@H]3C[C@@H](O)[C@@H](CO)O3)c(=O)[nH]c2=O)c1 [CBK201262]	94.4
Cc1cnc(CNC(=O)N(CCC#N)C2CCCCC2)cn1 [CBK156352]	96.5
O=C(Nc1ccc2nc3n(c(=O)c2c1)CCCC3)C1CCCCC1 [CBK304383]	91.9
O=C(OCCc1ccncc1)N1Cc2ccccc2C1 [CBK200141]	95.5
Clc1ccc(Nc2nc(-c3ccoc3)cn3ccnc23)cc1 [CBK066497]	102
CC1CCN(C(=O)C[C@@H]2O[C@H](CNS(=O)(=O)c3ccccc3)[C@@H](O)[C@H]2O)CC1 [CBK288927]	89.7
COCCN(C(=O)c1[nH]c2c(F)cccc2c1C)C1CCN(C)CC1 [CBK307386]	95

Structure (SMILES)	viability at 28.5 h, 10 µM [%]
CC(=O)Nc1ccc(-c2ccc(C(=O)NCc3cccnc3)cn2)cc1 [CBK158842]	96.9
CCC1CC(C(F)(F)F)n2ncc(C(=O)O)c2N1 (centres unmarked) [CBK286893]	85.2
O=C(O)CCC(=O)Nc1ccc(OC(F)F)cc1 [CBK264222]	99.8
O=C(COc1ccccc1/C=C1/NC(=O)NC1=O)Nc1ccccc1 [CBK264620]	99.3
Cc1nn(C)cc1CN(C)CC(=O)Nc1nc2c(s1)CC(C)CC2 (centres unmarked) [CBK306669]	90.6
CC(C)(C)c1ccc(C(=O)N2CCC3(CC2)CC(=O)N(Cc2ccc(S(C)(=O)=O)cc2)C3=O)cc1 [CBK155018]	106
CN(Cc1cccnc1)C(=O)CSC(c1ccccc1)c1ccccc1 [CBK298284]	90.7
COC(=O)c1ccc2c(=O)n(CCN3CCOCC3)c(=S)[nH]c2c1 [CBK268553]	69
CC1(C)Cc2ccccc2C(NCCC(=O)O)=N1 [CBK023412]	97.9
Cc1ccc(S(N)(=O)=O)cc1-c1nnc2c3ccccc3c(C)nn12 [CBK266680]	104
COc1cccc(NC(=O)CC(CN2CCC(O)CC2)C(=O)O)c1 (centres unmarked) [CBK286842]	93
Cc1ccc(C)c(N2CCN(S(=O)(=O)c3ccc(-c4ccccc4)cc3)CC2)c1 [CBK100692]	104
Clc1ccc(Nc2cncc(-c3cccnc3)n2)cc1 [CBK065234]	105
Cc1onc(-c2ccccc2)c1CNC(=O)c1ccc(OC(F)(F)F)cc1 [CBK144080]	97.9
Cc1cc(C)n2nc(C(=O)NCCCn3ccnc3C(C)C)nc2n1 [CBK307635]	94
O=C(OCc1ccc(Cl)cc1)c1ccc2c(c1)C(=O)N(c1cccc([N+](=O)[O-])c1)C2=O [CBK265188]	109
OCc1ccccc1-c1cncc(N2CCCC2CO)n1 (centres unmarked) [CBK065333]	106
O=C(Nc1nccs1)c1ccc2[nH]ccc2c1 [CBK161731]	90.5
COc1c(O)ccc(/C=N/NC(=O)COc2c(Br)cc(Br)cc2Br)c1[N+](=O)[O-] [CBK261957]	95.9
CCCc1oc(C(=O)O)cc1CN1CCOCC1 [CBK267984C]	106
CCC(=O)Nc1ccccc1C(=O)C(=O)O [CBK219398]	120
CN(CCOc1ccccc1)c1nccnc1N1CCNCC1 [CBK000035F]	109

Structure (SMILES)	viability at 28.5 h, 10 µM [%]
O=C(O)CC1(CNC(=O)Cn2nc(-c3ccccc3)ccc2=O)CCCCC1 [CBK286866]	84.1
CCOC(=O)c1ccc(NC(=S)NCCN(CC)CC)cc1 [CBK018358]	104
Cc1cc(C(=O)NC(C)Cn2nc(C)cc2C)c2cccc(C)c2n1 (centres unmarked) [CBK281635]	91.4
c1coc(CNc2c(-c3ccco3)nc3cnccn23)c1 [CBK283496]	103
Cc1cc(NC(=O)CSc2nc(-c3ccc(F)cc3)cc(C(F)(F)F)n2)n(-c2ccccc2)n1 [CBK266248]	102
O=C(Cn1ccnc1)Nc1ccccc1Oc1ccc(F)cc1 [CBK281455]	90.1
O=C(NCCOCc1ccc(Cl)cc1)c1cc(-n2cnnc2)ccc1Cl [CBK267939]	101
CCCC(=O)Nc1ccccc1OC1CCNCC1 [CBK045902T]	98
CCn1c(/C=C/C2=CCN(C)CC2)nc2ccccc21 [CBK283745]	91.8
CCN(CC(C)C#N)C(=O)c1ccc2ccccc2n1 (centres unmarked) [CBK304801]	96.6
O=C(Nc1cccnc1N1CCNCC1)c1cc(F)cc(F)c1 [CBK029420T]	92.3
CCOC(=O)C(CNC(=O)c1c(C)nn(C)c1C)Cc1ccccc1 (centres unmarked) [CBK305276]	90
CC(=O)c1ccc(N(C)C)cc1 [CBK033830]	106
Cc1cc(C(=O)CSc2nnc(-c3ccccc3F)n2CC(C)C)c(C)[nH]1 [CBK297877]	85.1
CCN1CCN(c2ccc(NS(=O)(=O)c3ccccc3)c3ccccc23)CC1 [CBK200011C]	88.3
Oc1ccc(-c2nccnc2NCCc2ccncc2)cc1 [CBK037302]	94.3
O=C1CCc2cccc(OCCO)c21 [CBK001442]	92.7
CN(C)c1cccc(-c2ccc(Nc3ccc(N4CCOCC4)cc3)nc2)c1 [CBK037735]	92.2
CCC1(CC)OC(N[C@@H](C)c2ccc(Br)cc2)=NC1=O [CBK126665]	102
CCn1nc(C)c(CN2CCCC(c3cc4cccnc4[nH]3)C2)c1C (centres unmarked) [CBK284977]	107
CC(Sc1nc2ccccc2[nH]1)c1nc2ccccc2[nH]1 (centres unmarked) [CBK266502]	89.7

same assay, conditions: human, hela cells, % viability, bulk resorufin, single well

Structure (SMILES)	viability at 28.5 h, 10 µM [%]
Cc1cc(/C=C2\C(=O)NC(=S)N(c3ccccc3)C2=O)c(C)n1-c1cc(C(=O)O)cc(C(=O)O)c1 [CBK263975]	105
CN(C)[C@H]1CCC[C@@H]1C(=O)Nc1ccc(Cl)c(Cl)c1 [CBK003406]	86.9
